The record followed here is patent publication US20180051317A1, “NON-RADIOACTIVE METHOD FOR DETERMINING THE CYTOLITIC ACTIVITY OF AN AGENT WITH RESPECT TO TARGET CELLS, USE THEREOF AND ASSOCIATED KIT” (CLEAN CELLS, priority 2015, published 2018).

Format in all cases: cell-based
In one assay the test system is Raji cells. The assay can be described thus: cell death induced by a pro-apoptotic chemical agent (nanoluciferase release and TO-PRO-3 flow cytometry). The following applies: 48 hours, increasing concentrations; regardless of the method for measuring the mortality. Here is the method: Raji cells transformed to stably express nanoluciferase (50 000 cells per well) are cultured for 48 hours at 37° C. (under a humidified atmosphere containing 5% CO2) in the presence of increasing concentrations of staurosporine, which is a pro-apoptotic drug, in RPMI-1640 medium containing 10% of FCS, and in the presence or absence of 0.2% of triton X-100 (to determine the maximum release). At the end of the incubation, 25 μl of supernatant are recovered from each well, transferred into a white “half-well” plate, mixed with 25 μl of NanoGlo® substrate diluted to 1/50 in D-PBS, incubated for 3 minutes and read on a Mithras LB940 luminometer. The results of the reading are expressed in RLU (relative luminescence units). The percentage of dead cells for each concentration of staurosporine is determined according to the formula (RLU[triton-free medium])/(RLU[0.2% triton])×100.
After removing the supernatant, the remainder of the cells are resuspended, extemporaneously mixed with a final concentration of 0.25 μM of the vital marker TO-PRO-3 (Life Technologies) and acquired on a C6 flow cytometer (BD/Accuri). The percentage of dead cells is determined during the analysis of the cytometry data as the percentage of cells having integrated the TO-PRO-3.
Two identical independent experiments were carried out, the results of which are presented on graphs A and B of FIG. 28. […]
(In general: Flow cytometry measures light scatter and fluorescence of single cells or particles in a stream.)

The subject of assay [1] is CHO cells stably expressing TNF-alpha and nanoluciferase. Kind of assay: anti-TNF-alpha ADCC assay, 51Cr release method. The following applies: mean±SD of 3 experiments. The protocol:
(§1) The nanoluciferase method was compared to the ^51Cr method in an anti-TNF-alpha ADCC assay. For this, the CHO cells described in example 7, stably expressing TNF-alpha and nanoluciferase, were used, as was a standard range of adalimumab and of variations at 80% and 125% of this range. Three independent experiments were carried out, according to the same methodology as in the previous examples.

Assay [2] relates to CHO cells stably expressing human TNF-alpha in its membraned form. Kind of assay: anti-TNF-alpha CDC assay, nanoluciferase release method. The conditions noted are these: for mean potency: mean±SD. The protocol:
(§2) The method for measuring nanoluciferase release was compared to the chromium method in a third model, that of the anti-TNF-alpha antibody adalimumab (Humira®). The present example illustrates the implementation thereof in an assay for measuring the CDC activity. For this, CHO cells pretransformed and selected to stably express human TNF-alpha in its membraned form were transformed to stably express nanoluciferase. […] Briefly, these cells, labeled or not labeled with ^51Cr, were incubated in the presence of increasing concentrations of adalimumab (Humira®) and of a source of complement (from guinea pig (Sigma)). The specific lysis was then measured by the appropriate method (chromium release or nanoluciferase release).
(§3) The percentage of specific lysis obtained for each concentration X is calculated in the same way for the two types of methods, on the basis of the measurements of radioactivity (in CCPM) or of luminescence (in RLU) according to the formula
(§4) The percentages of specific lysis are represented along the y-axis, each point (black circle for nanoluciferase and white squares for ^51Cr) representing the mean of the nine determinations (3 replicates in 3 independent experiments) and the vertical bars representing the standard deviations. The data were modeled by means of a 4-parameter sigmoidal regression using the GraphPad Prism software.

For assay [3] the test system is unchanged. Kind of assay: anti-TNF-alpha CDC assay, 51Cr release method. The conditions noted are these: for mean potency: mean±SD. Here is the method:
as §2, §3, §4

Assay [4] relates to CHO cells stably expressing TNF-alpha and nanoluciferase. Kind of assay: anti-TNF-alpha ADCC assay, nanoluciferase release method. The conditions noted are these: mean±SD of 3 experiments. The protocol: as §1
The subject of assay [5] is Raji target cells. Kind of assay: anti-CD20 ADCC assay, nanoluciferase release method. Here is the method: (§5) The same Raji cells expressing nanoluciferase were or were not labeled with ^51Cr and were used in parallel in the assay.
(§6) Raji target cells transformed to stably express nanoluciferase were incubated or not incubated for 1 hour in a saline solution of Na2CrO4 equivalent to 100 μCi of ^51Cr per million cells, then washed 4 times with RPMI-1640, 10% FCS, and counted. The cells (3000 per well), labeled or not labeled with ^51Cr, were then incubated at 37° C. in a humidified atmosphere at 5% CO2 in flat-bottomed 96-well plates treated for cell culture, in the presence of increasing concentrations of the rituximab antibody (MabThera®) and of cytotoxic effector cells (T lymphocytes expressing CD16, 30 000 cells per well) in RPMI-1640 supplemented with 5% of FCS.
(§7) After 4 hours of incubation, the percentage of specific lysis is measured according to the corresponding method (release of ^51Cr or of nanoluciferase depending on whether the cells have or have not been labeled with chromium): 25 μl of supernatant of the ^51Cr-labeled cells are recovered and deposited on a Lumaplate® (Perkin Elmer). At the same time, for the cells not labeled with ^51Cr, 25 μl of supernatant are recovered from each well, transferred into white “half-well” 96-well plates, mixed with 25 μl of NanoGlo® substrate diluted to 1/50 in D-PBS, incubated for 3 minutes and read on a Mithras LB940 luminometer (Berthold Technologies). After drying overnight, the radioactivity of the supernatants deposited in the Lumaplate® is measured in a Microbeta-Jet counter (Perkin Elmer) and expressed in CCPM (corrected count per minute) after standardization of the detectors.
(§8) The percentage of specific lysis obtained for each concentration X is calculated in the same way for the two types of methods, from the measurements of radioactivity (in CCPM) or of luminescence (in RLU) according to the formula
(§9) The percentages of specific lysis are represented in FIG. 9 along the y-axis, each point representing the mean of the nine determinations (3 replicates in 3 independent experiments) and the vertical bars representing the standard deviations. The data were modeled by means of a 4-parameter sigmoidal regression using the GraphPad Prism software.
(§10) This approach also makes it possible to evaluate the accuracy of the method according to the ICH-Q2(R1) criteria.

For assay [6], the system named is Raji target cells. The assay can be described thus: anti-CD20 ADCC assay, 51Cr release method. The protocol: as §5, §6, §7, §8, §9, §10
For assay [7], the system named is Raji target cells. Kind of assay: anti-CD20 CDC assay, nanoluciferase release method. Here is the method:
as §6, §7, §8, §9, §10
(§11) Using the same type of target cells as that of example 4, the nanoluciferase method was compared to the ^51Cr method in an anti-CD20 CDC assay. The methodology applied was the same as that described in example 4, the cytolytic system being formed by a source of complement. In the same way, a standard range of antibody (rituximab) was used, and also 80% and 125% modified concentration ranges. Three independent experiments were carried out, one of which was carried out by a second operator.

Assay [8] deals with Raji target cells. The assay can be described thus: anti-CD20 CDC assay, 51Cr release method. The protocol:
as §6, §7, §8, §9, §10, §11

[9] abbreviates: guinea pig complement, mean±SD over the whole of the ranges in the 3 experiments.
The mark [10] stands for this setting: 51Cr, guinea pig complement, mean±SD over the whole of the ranges in the 3 experiments.
[11] abbreviates: 80% range, mean±SD of 3 experiments.
The mark [12] stands for this setting: 125% range, mean±SD of 3 experiments.
Setting [13] is: mean±SD of 3 experiments, 100% range.
[14] abbreviates: mean±SD, 80%, 100% and 125% ranges, 3 experiments, 4 h, CD16 T lymphocyte effectors.
[15] abbreviates: 100% range, mean±SD of 3 experiments.
Where [16] appears, read: complement source, mean±SD, all of the 80%, 100% and 125% ranges.

In the case of `CN[C@@H]1C[C@H]2O[C@@](C)([C@@H]1OC)n1c3ccccc3c3c4c(c5c6ccccc6n2c5c31)C(=O)NC4` [staurosporine], in the assay on Raji cells, the “mortality of the target cells” value is “proportional relationship between the concentration of staurosporine and the mortality of the target cells”.

As a reminder, the Emax is the size of the effect at its maximum, as opposed to the concentration needed. The EC50 is the concentration giving half of the maximal effect. Lower therefore signals an effect from little substance. Take adalimumab: the mean potency in assay [1] (80% range) was 91.4±43.3%; in assay [1] (125% range), 138.5±43.9%; in assay [2] (80% range), 83.4±10.1%; in [2] (125% range) it was 131.7±47.2%; in assay [3] (51Cr, 80% range) it was 91.2±23.6%; in [3] (51Cr, 125% range) it was 153.9±29.2%. Further, the mean potency was found to be 75.5±15.5% in assay [4] (80% range) and 114.2±22.8% in assay [4] (125% range). Further, the Emax in assay [2] (setting [9]) stood at 45.7±5.1%; in assay [3] (setting [10]) it was 50.4±5.6%. The figures for the Emin in assay [2] (setting [9]) and in assay [3] (setting [10]) were 0.9±1.5% and 3.2±2.8%, respectively. Besides, the EC50 in assay [2] (standard ranges, mean±SD of 3 experiments) worked out at 0.1569 ± 0.0234 µg/mL; in assay [3] (chromium, standard ranges, mean±SD of 3 experiments), 0.1508 ± 0.015 µg/mL.

Regarding rituximab, the “potency (EC50[100%]/EC50[X%]×100)” value is reported as 83.6±22% with Raji target cells [5] (setting [11]), 119.5±22.7% in the assay on Raji target cells [5] (setting [12]), 76.7±10% in the assay with Raji target cells [6] (setting [11]) and 131.9±11.9% in the assay with Raji target cells [6] (setting [12]). In addition, the EC50 was 0.0318 ± 0.0073 µg/mL in the assay with Raji target cells [5] (setting [13]), 0.0552 ± 0.0156 µg/mL in the assay with Raji target cells [6] (setting [13]), 0.0731 ± 0.0099 µg/mL in the assay with Raji target cells [7] (setting [15]) and 0.1567 ± 0.0301 µg/mL with Raji target cells [8] (setting [15]). For the same compound, the “Emax (maximum lysis percentage)” value was determined as 73.6±8.4% in the assay on Raji target cells [5] (setting [14]) and 75.7±6.0% in the assay with Raji target cells [6] (setting [14]). Moreover, the results for the “Emin (minimum lysis percentage)” value in the assay with Raji target cells [5] (setting [14]) and in the assay with Raji target cells [6] (setting [14]) were 1.2±1.2% and 1.0±1.5%, respectively. Further, the potency in the assay with Raji target cells [7] (80% range, mean±SD) amounted to 65.0±12.9%; in the assay with Raji target cells [7] (125% range, mean±SD), 105.8±8.2%; with Raji target cells [8] (80% range, mean±SD), 69.6±12.3%; in the assay on Raji target cells [8] (125% range, mean±SD), 131.5±16.4%. In addition, the results for the Emax in the assay with Raji target cells [7] (setting [16]) and in the assay with Raji target cells [8] (setting [16]) were 95.6±7.0% and 88.6±7.8%, respectively. The Emin in the assay with Raji target cells [7] (setting [16]) is recorded as −0.3±3.2%; in the assay with Raji target cells [8] (setting [16]), 3.0±3.4%.
